Measurements taken from paper PMC10247784, “Physiological activation of human and mouse bitter taste receptors by bile acids” (Communications Biology, 2023).
Several values for one entry are separate records, joined by “and”; a condition that tells them apart may be missing. Identical values can stand only once.

Target: T1, human TAS2R1 (Homo sapiens, UniProt Q9NYW7)
T1 construct: expressed in transfected cells; host or cells: HEK293T-Gα16gust44
T1 sequence (Q9NYW7 1-299): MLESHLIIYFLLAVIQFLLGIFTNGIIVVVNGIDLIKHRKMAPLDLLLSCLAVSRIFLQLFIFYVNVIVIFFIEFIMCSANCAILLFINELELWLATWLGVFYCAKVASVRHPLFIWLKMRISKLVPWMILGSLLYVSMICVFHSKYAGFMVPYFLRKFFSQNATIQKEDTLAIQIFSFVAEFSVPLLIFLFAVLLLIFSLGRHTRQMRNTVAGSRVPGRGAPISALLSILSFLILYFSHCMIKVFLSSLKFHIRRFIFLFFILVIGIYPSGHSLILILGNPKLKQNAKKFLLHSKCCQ
Experiment: Calcium imaging assay (FLIPR), HEK293T-Gα16gust44 cells transfected with human TAS2R1
Format: cell-based
Outline: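 Calcium responses via FLIPR in receptor-transfected HEK293T-Gα16gust44 cells (Fluo-4-AM, 2.5 mM probenecid), after mock-signal subtraction and normalization to baseline and buffer (ΔF/F). Threshold concentration is the lowest dose differing from mock cells at p < 0.01 (Student's t-test), from three biological replicates in duplicate.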

SMILES: C[C@H](CCC(=O)O)[C@H]1CC[C@H]2[C@@H]3[C@H](O)C[C@@H]4C[C@H](O)CC[C@]4(C)[C@H]3CC[C@]12C [Chenodeoxycholic Acid, chenodeoxycholic acid]
- Efficacy = maximal amplitude (ΔF/F) (TAS2R1, bile acids, mean): 0.1118
- Efficacy (maximal amplitude ΔF/F), individual data points (TAS2R1, bile acids, single replicates, listed as CDCA): 0.09822 and 0.1595 and 0.07759
- RLU (Time 0 s): 0 RLU
- RLU (Time 2.015 s): 19.0362 RLU
- RLU (Time 4.015 s): 1.217 RLU
- RLU (Time 6.015 s): -17.015 RLU
- RLU (Time 8.015 s): -2.669 RLU
- RLU (Time 12.015 s): 20.3444 RLU
- RLU (Time 14.015 s): 20.4897 RLU
- RLU (Time 16.015 s): 20.4897 RLU
- RLU (Time 18.015 s): 0.1896 RLU
- RLU (Time 18.796 s): 35.4441 RLU
- RLU (Time 20.796 s): 34.972 RLU
- RLU (Time 22.796 s): 66.6032 RLU
- RLU (Time 24.796 s): 169.759 RLU
- RLU (Time 26.796 s): 276.637 RLU
- RLU (Time 28.796 s): 430.728 RLU
- RLU (Time 30.796 s): 521.85 RLU
- RLU (Time 32.796 s): 667.246 RLU
- RLU (Time 34.796 s): 744.49 RLU
- RLU (Time 36.796 s): 777.672 RLU
- RLU (Time 38.796 s): 835.786 RLU
- RLU (Time 40.796 s): 853.586 RLU
- RLU (Time 42.796 s): 876.11 RLU
- RLU (Time 44.796 s): 905.241 RLU
- RLU (Time 46.796 s): 902.191 RLU
- RLU (Time 48.796 s): 919.121 RLU
- RLU (Time 50.796 s): 927.172 RLU
- RLU (Time 52.796 s): 893.665 RLU
- RLU (Time 54.796 s): 936.083 RLU
- RLU (Time 56.796 s): 944.124 RLU
- RLU (Time 58.796 s): 915.714 RLU
- RLU (Time 60.796 s): 876.524 RLU
- RLU (Time 62.796 s): 877.876 RLU
- RLU (Time 64.796 s): 906.896 RLU
- RLU (Time 66.796 s): 861.974 RLU
- RLU (Time 68.796 s): 872.092 RLU
- RLU (Time 70.796 s): 871.317 RLU
- RLU (Time 72.796 s): 854.469 RLU
- RLU (Time 74.796 s): 844.188 RLU
- RLU (Time 76.796 s): 841.862 RLU
- RLU (Time 78.796 s): 815.084 RLU
- RLU (Time 80.796 s): 833.544 RLU
- RLU (Time 82.796 s): 792.555 RLU
- RLU (Time 84.796 s): 783.457 RLU
- RLU (Time 86.796 s): 757.585 RLU
- RLU (Time 88.796 s): 790.002 RLU
- RLU (Time 90.796 s): 748.006 RLU
- RLU (Time 92.796 s): 752.186 RLU
- RLU (Time 94.796 s): 735.827 RLU
- RLU (Time 96.796 s): 731.254 RLU
- RLU (Time 98.796 s): 711.692 RLU
- RLU (Time 100.796 s): 698.367 RLU
- RLU (Time 102.796 s): 713.847 RLU
- RLU (Time 104.796 s): 673.465 RLU
- RLU (Time 106.796 s): 693.426 RLU
- RLU (Time 108.796 s): 681.535 RLU
- RLU (Time 110.796 s): 647.896 RLU
- RLU (Time 112.796 s): 643.349 RLU
- RLU (Time 114.796 s): 607.76 RLU
- RLU (Time 116.796 s): 609.573 RLU
- RLU (Time 118.796 s): 614.947 RLU
- RLU (Time 120.796 s): 582.22 RLU
- RLU (Time 122.796 s): 589.185 RLU
- RLU (Time 124.796 s): 584.345 RLU
- RLU (Time 126.796 s): 601.503 RLU
- RLU (Time 128.796 s): 551.854 RLU
- RLU (Time 130.796 s): 581.558 RLU
- RLU (Time 132.796 s): 570.089 RLU
- RLU (Time 134.796 s): 541.966 RLU
- RLU (Time 136.796 s): 537.391 RLU
- RLU (Time 137.562 s): 528.381 RLU
- RLU (Time 143.562 s): 528.401 RLU
- RLU (Time 149.562 s): 492.752 RLU
- RLU (Time 155.562 s): 464.959 RLU
- RLU (Time 161.562 s): 428.355 RLU
- RLU (Time 167.562 s): 423.067 RLU
- RLU (Time 173.562 s): 376.724 RLU
- RLU (Time 179.562 s): 392.276 RLU
- RLU (Time 185.562 s): 341.893 RLU
- RLU (Time 191.562 s): 346.95 RLU
- RLU (Time 197.562 s): 320.481 RLU
- RLU (Time 203.562 s): 327.574 RLU
- RLU (Time 209.562 s): 318.301 RLU
- RLU (Time 215.562 s): 277.825 RLU
- RLU (Time 221.562 s): 283.821 RLU
- RLU (Time 227.562 s): 172.224 RLU
- RLU (Time 233.562 s): 155.786 RLU
- RLU (Time 239.562 s): 141.722 RLU
- RLU (Time 245.562 s): 124.55 RLU
- RLU (Time 293.562 s): 126.733 RLU
- RLU (Time 299.562 s): 134.725 RLU
- RLU (calcium trace, sheet TAS2R1, Time 305.562 s): 138.341 RLU
- RLU (calcium trace, sheet TAS2R1, Time 311.562 s): 138.414 RLU
- RLU (calcium trace, sheet TAS2R1, Time 317.562 s): 144.044 RLU
- RLU (calcium trace, sheet TAS2R1, Time 323.562 s): 138.244 RLU
- RLU (calcium trace, sheet TAS2R1, Time 329.562 s): 121.3 RLU
- RLU (calcium trace, sheet TAS2R1, Time 335.562 s): 104.786 RLU
- RLU (calcium trace, sheet TAS2R1, Time 341.562 s): 124.793 RLU
- RLU (calcium trace, sheet TAS2R1, Time 347.562 s): 124.739 RLU
- RLU (calcium trace, sheet TAS2R1, Time 353.562 s): 136.304 RLU
- RLU (calcium trace, sheet TAS2R1, Time 359.562 s): 146.172 RLU
- Δ F/F (conc. 0,01 mM, TAS2R1): 0.1118
- Δ F/F (conc. 0,00003 mM, TAS2R1): -0.002448
- Δ F/F (conc. 0,0001 mM, TAS2R1): -0.01316
- Δ F/F (conc. 0,0003 mM, TAS2R1): -0.003718
- Δ F/F (conc. 0,001 mM, TAS2R1): 0.01001
- Δ F/F (conc. 0,003 mM, TAS2R1): 0.03254
- Activation threshold concentration TAS2R1 (lowest concentration with significantly increased fluorescence vs empty vector (p < 0.01)): 3 µM and 3.00 µM
- Receptor response TAS2R1 (screening): activated
